# System: 171881-019-R-J1-PDC complex spheroid viability
# Assay: Anticancer human tumor 171881-019-R-J1-PDC patient-derived invasive breast carcinoma cell line growth inhibition
# Conditions: for IC50: curve of first compound; for viability, T/C: stronger effect = lower value
# How it was run: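 Complex spheroids of tumor cells with HUVEC and human MSCs, exposed to iadademstat combined with other agents. Each agent tested in half-log steps from near clinical Cmax (else 10 microM top), DMSO ≤0.25%.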
# [1] = second compound 0.1 µM, first compound 0.0316 µM
# [2] = second compound 0.1 µM, first compound 0.1 µM
# [3] = second compound 0.1 µM, first compound 0.316 µM
# [4] = second compound 0.1 µM, first compound 1 µM
# [5] = second compound 0.1 µM, first compound 3.16 µM
# [6] = second compound 0.1 µM, first compound 10 µM
# [7] = second compound 0.316 µM, first compound 0.0316 µM
# [8] = second compound 0.316 µM, first compound 0.1 µM
# [9] = second compound 0.316 µM, first compound 0.316 µM
# [10] = second compound 0.316 µM, first compound 1 µM
# [11] = second compound 0.316 µM, first compound 3.16 µM
# [12] = second compound 0.316 µM, first compound 10 µM
# [13] = second compound 1 µM, first compound 0.0316 µM
# [14] = second compound 1 µM, first compound 0.1 µM
# [15] = second compound 1 µM, first compound 0.316 µM
# [16] = second compound 1 µM, first compound 1 µM
# [17] = second compound 1 µM, first compound 3.16 µM
# [18] = second compound 1 µM, first compound 10 µM
# [19] = second compound 3.16 µM, first compound 0.0316 µM
# [20] = second compound 3.16 µM, first compound 0.1 µM
# [21] = second compound 3.16 µM, first compound 0.316 µM
# [22] = second compound 3.16 µM, first compound 1 µM
# [23] = second compound 3.16 µM, first compound 3.16 µM
# [24] = second compound 3.16 µM, first compound 10 µM
# [25] = second compound 10 µM, first compound 0.0316 µM
# [26] = second compound 10 µM, first compound 0.1 µM
# [27] = second compound 10 µM, first compound 0.316 µM
# [28] = second compound 10 µM, first compound 1 µM
# [29] = second compound 10 µM, first compound 3.16 µM
# [30] = second compound 10 µM, first compound 10 µM
# [31] = second compound 0.1 µM, first compound 0.00949 µM
# [32] = second compound 0.1 µM, first compound 0.03 µM
# [33] = second compound 0.1 µM, first compound 0.0949 µM
# [34] = second compound 0.1 µM, first compound 0.3 µM
# [35] = second compound 0.316 µM, first compound 0.00949 µM
# [36] = second compound 0.316 µM, first compound 0.03 µM
# [37] = second compound 0.316 µM, first compound 0.0949 µM
# [38] = second compound 0.316 µM, first compound 0.3 µM
# [39] = second compound 1 µM, first compound 0.00949 µM
# [40] = second compound 1 µM, first compound 0.03 µM
# [41] = second compound 1 µM, first compound 0.0949 µM
# [42] = second compound 1 µM, first compound 0.3 µM
# [43] = second compound 3.16 µM, first compound 0.00949 µM
# [44] = second compound 3.16 µM, first compound 0.03 µM
# [45] = second compound 3.16 µM, first compound 0.0949 µM
# [46] = second compound 3.16 µM, first compound 0.3 µM
# [47] = second compound 10 µM, first compound 0.00949 µM
# [48] = second compound 10 µM, first compound 0.03 µM
# [49] = second compound 10 µM, first compound 0.0949 µM
# [50] = second compound 10 µM, first compound 0.3 µM
smiles,measurement,setting,value
CC1(C)CCC(CN2CCN(c3ccc(C(=O)NS(=O)(=O)c4ccc(NCC5CCOCC5)c([N+](=O)[O-])c4)c(Oc4cnc5[nH]ccc5c4)c3)CC2)=C(c2ccc(Cl)cc2)C1 + NC1CC1c1ccc(-c2cccc(O)c2)cc1,IC50,second compound 0.1 µM,1410 nM
same,IC50,second compound 0.316 µM,1490 nM
same,IC50,second compound 1 µM,1450 nM
same,IC50,second compound 3.16 µM,1450 nM
same,IC50,second compound 10 µM,1300 nM
same,"viability, T/C",[1],101%
same,"viability, T/C",[2],97.9%
same,"viability, T/C",[3],87.8%
same,"viability, T/C",[4],63%
same,"viability, T/C",[5],21.7%
same,"viability, T/C",[6],9.08%
same,"viability, T/C",[7],103%
same,"viability, T/C",[8],95.7%
same,"viability, T/C",[9],92.3%
same,"viability, T/C",[10],64.4%
same,"viability, T/C",[11],22.9%
same,"viability, T/C",[12],4.28%
same,"viability, T/C",[13],103%
same,"viability, T/C",[14],102%
same,"viability, T/C",[15],88.4%
same,"viability, T/C",[16],64.2%
same,"viability, T/C",[17],22.3%
same,"viability, T/C",[18],4%
same,"viability, T/C",[19],94.5%
same,"viability, T/C",[20],92.7%
same,"viability, T/C",[21],86.3%
same,"viability, T/C",[22],63.2%
same,"viability, T/C",[23],22.8%
same,"viability, T/C",[24],4.22%
same,"viability, T/C",[25],84.5%
same,"viability, T/C",[26],82.5%
same,"viability, T/C",[27],77.1%
same,"viability, T/C",[28],59%
same,"viability, T/C",[29],21.2%
same,"viability, T/C",[30],3.96%
CC1COCCN1c1cc(C2(S(C)(=N)=O)CC2)nc(-c2ccnc3[nH]ccc23)n1 (stereo not given) + NC1CC1c1ccc(-c2cccc(O)c2)cc1,IC50,second compound 0.1 µM,1370 nM
same,IC50,second compound 0.316 µM,1450 nM
same,IC50,second compound 1 µM,1470 nM
same,IC50,second compound 3.16 µM,1410 nM
same,IC50,second compound 10 µM,1150 nM
same,"viability, T/C",[1],103%
same,"viability, T/C",[2],102%
same,"viability, T/C",[3],97.9%
same,"viability, T/C",[4],59.6%
same,"viability, T/C",[5],22.3%
same,"viability, T/C",[6],9.45%
same,"viability, T/C",[7],106%
same,"viability, T/C",[8],103%
same,"viability, T/C",[9],99.3%
same,"viability, T/C",[10],61.1%
same,"viability, T/C",[11],24.7%
same,"viability, T/C",[12],9.56%
same,"viability, T/C",[13],103%
same,"viability, T/C",[14],104%
same,"viability, T/C",[15],91.1%
same,"viability, T/C",[16],63.5%
same,"viability, T/C",[17],24.3%
same,"viability, T/C",[18],9.48%
same,"viability, T/C",[19],99.5%
same,"viability, T/C",[20],104%
same,"viability, T/C",[21],96.9%
same,"viability, T/C",[22],61.5%
same,"viability, T/C",[23],21.8%
same,"viability, T/C",[24],8.64%
same,"viability, T/C",[25],86.4%
same,"viability, T/C",[26],87.7%
same,"viability, T/C",[27],81.6%
same,"viability, T/C",[28],53.3%
same,"viability, T/C",[29],21.1%
same,"viability, T/C",[30],8.98%
CCN(c1cc(-c2ccc(CN3CCOCC3)cc2)cc(C(=O)NCc2c(C)cc(C)[nH]c2=O)c1C)C1CCOCC1 + NC1CC1c1ccc(-c2cccc(O)c2)cc1,IC50,second compound 0.1 µM,2130 nM
same,IC50,second compound 0.316 µM,2050 nM
same,IC50,second compound 1 µM,1840 nM
same,IC50,second compound 3.16 µM,1510 nM
same,IC50,second compound 10 µM,1180 nM
same,"viability, T/C",[31],102%
same,"viability, T/C",[32],109%
same,"viability, T/C",[33],102%
same,"viability, T/C",[34],84.8%
same,"viability, T/C","second compound 0.1 µM, first compound 0.949 µM",68%
same,"viability, T/C","second compound 0.1 µM, first compound 3 µM",42.7%
same,"viability, T/C",[35],102%
same,"viability, T/C",[36],107%
same,"viability, T/C",[37],105%
same,"viability, T/C",[38],88.4%
same,"viability, T/C","second compound 0.316 µM, first compound 0.949 µM",66.8%
same,"viability, T/C","second compound 0.316 µM, first compound 3 µM",42%
same,"viability, T/C",[39],99.3%
same,"viability, T/C",[40],108%
same,"viability, T/C",[41],96.6%
same,"viability, T/C",[42],74.9%
same,"viability, T/C","second compound 1 µM, first compound 0.949 µM",61%
same,"viability, T/C","second compound 1 µM, first compound 3 µM",43%
same,"viability, T/C",[43],96%
same,"viability, T/C",[44],91.7%
same,"viability, T/C",[45],90.6%
same,"viability, T/C",[46],75.2%
same,"viability, T/C","second compound 3.16 µM, first compound 0.949 µM",59%
same,"viability, T/C","second compound 3.16 µM, first compound 3 µM",37.6%
same,"viability, T/C",[47],78.5%
same,"viability, T/C",[48],77.4%
same,"viability, T/C",[49],82.2%
same,"viability, T/C",[50],60.2%
same,"viability, T/C","second compound 10 µM, first compound 0.949 µM",55.7%
same,"viability, T/C","second compound 10 µM, first compound 3 µM",38.8%
Cn1ncnc1C1c2n[nH]c(=O)c3cc(F)cc(c23)NC1c1ccc(F)cc1 (stereo not given) + NC1CC1c1ccc(-c2cccc(O)c2)cc1,IC50,second compound 0.1 µM,> 100 nM
same,IC50,second compound 0.316 µM,> 100 nM
same,IC50,second compound 1 µM,> 100 nM
same,IC50,second compound 3.16 µM,> 100 nM
same,IC50,second compound 10 µM,> 100 nM
same,"viability, T/C","second compound 0.1 µM, first compound 0.000316 µM",105%
same,"viability, T/C","second compound 0.1 µM, first compound 0.001 µM",106%
same,"viability, T/C","second compound 0.1 µM, first compound 0.00316 µM",107%
same,"viability, T/C","second compound 0.1 µM, first compound 0.01 µM",104%
same,"viability, T/C",[1],105%
same,"viability, T/C",[2],102%
same,"viability, T/C","second compound 0.316 µM, first compound 0.000316 µM",106%
same,"viability, T/C","second compound 0.316 µM, first compound 0.001 µM",111%
same,"viability, T/C","second compound 0.316 µM, first compound 0.00316 µM",109%
same,"viability, T/C","second compound 0.316 µM, first compound 0.01 µM",108%
same,"viability, T/C",[7],108%
same,"viability, T/C",[8],102%
same,"viability, T/C","second compound 1 µM, first compound 0.000316 µM",105%
same,"viability, T/C","second compound 1 µM, first compound 0.001 µM",106%
same,"viability, T/C","second compound 1 µM, first compound 0.00316 µM",111%
same,"viability, T/C","second compound 1 µM, first compound 0.01 µM",108%
same,"viability, T/C",[13],103%
same,"viability, T/C",[14],103%
same,"viability, T/C","second compound 3.16 µM, first compound 0.000316 µM",97.2%
same,"viability, T/C","second compound 3.16 µM, first compound 0.001 µM",104%
same,"viability, T/C","second compound 3.16 µM, first compound 0.00316 µM",101%
same,"viability, T/C","second compound 3.16 µM, first compound 0.01 µM",102%
same,"viability, T/C",[19],98.6%
same,"viability, T/C",[20],96.8%
same,"viability, T/C","second compound 10 µM, first compound 0.000316 µM",85.3%
same,"viability, T/C","second compound 10 µM, first compound 0.001 µM",91.2%
same,"viability, T/C","second compound 10 µM, first compound 0.00316 µM",90.8%
same,"viability, T/C","second compound 10 µM, first compound 0.01 µM",83%
same,"viability, T/C",[25],83.3%
same,"viability, T/C",[26],81.3%
Nc1ncn(C2CC(O)C(CO)S2)c(=O)n1 (stereo not given) + NC1CC1c1ccc(-c2cccc(O)c2)cc1,IC50,second compound 0.1 µM,93.9 nM
same,IC50,second compound 0.316 µM,119 nM
same,IC50,second compound 1 µM,102 nM
same,IC50,second compound 3.16 µM,99.3 nM
same,IC50,second compound 10 µM,80.2 nM
same,"viability, T/C","second compound 0.1 µM, first compound 0.000949 µM",101%
same,"viability, T/C","second compound 0.1 µM, first compound 0.003 µM",106%
same,"viability, T/C",[31],102%
same,"viability, T/C",[32],75.3%
same,"viability, T/C",[33],52.3%
same,"viability, T/C",[34],34.4%
same,"viability, T/C","second compound 0.316 µM, first compound 0.000949 µM",111%
same,"viability, T/C","second compound 0.316 µM, first compound 0.003 µM",106%
same,"viability, T/C",[35],101%
same,"viability, T/C",[36],75.8%
same,"viability, T/C",[37],56.2%
same,"viability, T/C",[38],32.1%
same,"viability, T/C","second compound 1 µM, first compound 0.000949 µM",108%
same,"viability, T/C","second compound 1 µM, first compound 0.003 µM",95.7%
same,"viability, T/C",[39],98.1%
same,"viability, T/C",[40],76.8%
same,"viability, T/C",[41],51.4%
same,"viability, T/C",[42],30.3%
same,"viability, T/C","second compound 3.16 µM, first compound 0.000949 µM",95.1%
same,"viability, T/C","second compound 3.16 µM, first compound 0.003 µM",90.8%
same,"viability, T/C",[43],88.7%
same,"viability, T/C",[44],69.2%
same,"viability, T/C",[45],52.1%
same,"viability, T/C",[46],30.1%
same,"viability, T/C","second compound 10 µM, first compound 0.000949 µM",75.8%
same,"viability, T/C","second compound 10 µM, first compound 0.003 µM",71.8%
same,"viability, T/C",[47],81.3%
same,"viability, T/C",[48],61.7%
same,"viability, T/C",[49],48.9%
same,"viability, T/C",[50],31%

# Source: PubChem BioAssay AID1918932 (Molecular Pharmacology Branch, DTP, NCI, 2023)
